By IC50 is commonly meant the concentration that gives 50% inhibition.

These results are taken from patent publication US7425631B2 (Amgen Inc., priority 2003, dated 2008).

Some results are limits rather than exact numbers.

The assay has as its target T1, human B1 receptor (Homo sapiens, UniProt P46663).
T1 construct: expressed in transfected cells
T1 sequence (P46663 1-353): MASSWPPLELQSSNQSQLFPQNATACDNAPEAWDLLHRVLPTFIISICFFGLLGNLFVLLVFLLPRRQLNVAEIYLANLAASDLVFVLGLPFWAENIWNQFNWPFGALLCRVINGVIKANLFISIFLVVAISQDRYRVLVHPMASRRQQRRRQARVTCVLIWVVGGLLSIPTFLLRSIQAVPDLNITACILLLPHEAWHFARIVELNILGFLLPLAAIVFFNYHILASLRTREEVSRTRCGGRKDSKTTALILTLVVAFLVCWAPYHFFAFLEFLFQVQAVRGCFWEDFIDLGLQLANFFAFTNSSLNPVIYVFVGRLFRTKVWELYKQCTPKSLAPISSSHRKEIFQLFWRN
As to the kind of experiment: In vitro assay of human B1 receptor function using calcium flux (aequorin luminescence). Type of assay: cell-based. The following applies: CHO D-/hB1/Aequorin cells, agonist 20 nM des-Arg10-Kallidin (EC80); read-out: binding IC50's to hB1 receptor function. As for the experimental part: Activation of the Gq linked B1 receptor results in an increase in intracellular calcium. […] Aequorin is a 21-kDa photoprotein that forms a bioluminescent complex when linked to the chromophore cofactor coelenterazine.
Following coelenterazine incubation, an automated flash-luminometer platform was used to dispense the B1 antagonist compounds (dissolved in DMSO and diluted with buffer to the desired concentration (final DMSO concentration <1% DMSO)) to the cell plate, a CCD camera situated underneath the cell plate took 12 images of the cell plate at 5 second intervals to determine if there was any agonist activity with the compounds. The hB1 agonist, des-Arg10-Kallidin, was added to the cell plate and another 12 images were recorded to determine the IC50 of the antagonist(s).
On the technique in general: A change in cytosolic calcium serves as a functional read-out for many receptors and channels.
As for `CC(C)NCc1ccc2c(c1)CCC[C@H]2NC(=O)C[C@@H](NS(=O)(=O)c1ccc(Cl)c(Cl)c1)c1ccccc1`, the IC50 was less than 10 nM.

Take `O=C(CC(NS(=O)(=O)c1cccc(C(F)(F)F)c1)c1ccc(F)cc1)N[C@@H]1CCCc2cc(CN3CCCCC3)ccc21` (stereo in doubt) [ba, (3S)-3-(4-fluorophenyl)-N-((1R)-6-(1-piperidinylmethyl)-1,2,3,4-tetrahydro-1-naphthalenyl)-3-(((3-(trifluoromethyl)phenyl)sulfonyl)amino)propanamide]: the IC50 is less than 10 nM.

For the compound `O=C(C[C@@H](NS(=O)(=O)c1cccc(C(F)(F)F)c1)c1ccccc1)N[C@@H]1CCOc2cc(CN3CCCCC3)ccc21` [Example 166, (3R)-3-Phenyl-N-((4R)-7-(1-piperidinylmethyl)-3,4-dihydro-2H-chromen-4-yl)-3-(((3-(trifluoromethyl)phenyl)sulfonyl)amino)propanamide], the IC50 is less than 10 nM.

Regarding `O=C(C[C@@H](NS(=O)(=O)c1ccc(Cl)c(Cl)c1)c1ccccc1)N[C@@H]1CCOc2cc(CN3CCCCC3)ccc21` [Example 168, (3R)-3-(((3,4-Dichlorophenyl)sulfonyl)amino)-3-phenyl-N-((4R)-7-(1-piperidinylmethyl)-3,4-dihydro-2H-chromen-4-yl)propanamide], the half-inhibitory concentration (IC50) is less than 10 nM.

Turning to `O=C(C[C@@H](NS(=O)(=O)c1ccc(Cl)c(Cl)c1)c1ccccc1)N[C@@H]1CCOc2cc(CN3CCOCC3)ccc21` [Example 169, (3R)-3-(((3,4-Dichlorophenyl)sulfonyl)amino)-N-((4R)-7-(4-morpholinylmethyl)-3,4-dihydro-2H-chromen-4-yl)-3-phenylpropanamide], the half-maximal inhibitory concentration (IC50) is less than 10 nM.

`CC(C)(C)NCc1ccc2c(c1)OCC[C@H]2NC(=O)C[C@@H](NS(=O)(=O)c1cccc(C(F)(F)F)c1)c1ccccc1` [Example 170, (3R)-N-((4R)-7-(((1,1-Dimethylethyl)amino)methyl)-3,4-dihydro-2H-chromen-4-yl)-3-phenyl-3-(((3-(trifluoromethyl)phenyl)sulfonyl)amino)propanamide]: the half-inhibitory concentration (IC50) was less than 10 nM.

Take `CN1c2cc(CN3CCCCC3)ccc2[C@@H](NC(=O)C[C@@H](NS(=O)(=O)c2ccc3ccccc3c2)c2ccccc2)CS1(=O)=O` [Example 175, (3R)-N-((4R)-1-Methyl-2,2-dioxido-7-(1-piperidinylmethyl)-3,4-dihydro-1H-2,1-benzothiazin-4-yl)-3-((2-naphthalenylsulfonyl)amino)-3-phenylpropanamide]: the IC50 was less than 10 nM.

Turning to `O=C(C[C@@H](NS(=O)(=O)c1ccc2ccccc2c1)c1ccccc1)N[C@H]1CCc2cc(CN3CCCCC3)ccc21` [Example 176, (3R)-3-((2-Naphthalenylsulfonyl)amino)-3-phenyl-N-((1S)-5-(1-piperidinylmethyl)-2,3-dihydro-1H-inden-1-yl)propanamide], the IC50 was less than 10 nM.

`O=C(C[C@@H](NS(=O)(=O)c1cccc(C(F)(F)F)c1)c1ccccc1)N[C@@H]1CCOc2cc(CN3CCC(F)CC3)ccc21` [Example 185, (3R)-N-((4R)-7-((4-Fluoro-1-piperidinyl)methyl)-3,4-dihydro-2H-chromen-4-yl)-3-phenyl-3-(((3-(trifluoromethyl)phenyl)sulfonyl)amino)propanamide]: the IC50 was less than 10 nM.

Consider `O=C(C[C@@H](NS(=O)(=O)c1cccc(C(F)(F)F)c1)c1ccccc1)N[C@@H]1CCOc2cc(CN3CCC(F)(F)CC3)ccc21` [Example 198, (3R)-N-((4R)-7-((4,4-Difluoro-1-piperidinyl)methyl)-3,4-dihydro-2H-chromen-4-yl)-3-phenyl-3-(((3-(trifluoromethyl)phenyl)sulfonyl)amino)propanamide], for which the IC50 is less than 10 nM.

As for `C=C(CN1CCCCC1)c1ccc2c(c1)CCC[C@H]2NC(=O)C[C@@H](NS(=O)(=O)c1ccc(Cl)c(Cl)c1)c1ccccc1` [Example 218d, (3R)-3-(((3,4-dichlorophenyl)sulfonyl)amino)-3-phenyl-N-((1R)-6-(1-(1-piperidinylmethyl)ethenyl)-1,2,3,4-tetrahydro-1-naphthalenyl)propanamide], the concentration for half-maximal inhibition (IC50) is less than 10 nM.

On to `C=C(CN1CC[C@H](O)C1)c1ccc2c(c1)CCC[C@H]2NC(=O)C[C@@H](NS(=O)(=O)c1cccc(C(F)(F)F)c1)c1ccccc1` [Example 218j, (3R)-N-((1R)-6-(1-(((3S)-3-hydroxy-1-pyrrolidinyl)methyl)ethenyl)-1,2,3,4-tetrahydro-1-naphthalenyl)-3-phenyl-3-(((3-(trifluoromethyl)phenyl)sulfonyl)amino)propanamide], for which the half-maximal inhibitory concentration (IC50) was less than 10 nM.

For `C=C(CN1CCCC1)c1ccc2c(c1)CCC[C@H]2NC(=O)C[C@@H](NS(=O)(=O)c1cccc(C(F)(F)F)c1)c1ccccc1` [Example 218q, (3R)-3-phenyl-N-((1R)-6-(1-(1-pyrrolidinylmethyl)ethenyl)-1,2,3,4-tetrahydro-1-naphthalenyl)-3-(((3-(trifluoromethyl)phenyl)sulfonyl)amino)propanamide], the IC50 was less than 10 nM.

In the case of `C=C(CN1CCCCC1)c1ccc2c(c1)CCC[C@H]2NC(=O)C[C@@H](NS(=O)(=O)c1cccc(C(F)(F)F)c1)c1ccccc1` [Example 218r, (3R)-3-phenyl-N-((1R)-6-(1-(1-piperidinylmethyl)ethenyl)-1,2,3,4-tetrahydro-1-naphthalenyl)-3-(((3-(trifluoromethyl)phenyl)sulfonyl)amino)propanamide], the IC50 was less than 10 nM.

Consider `CC(C)CNC(C)c1ccc2c(c1)CCC[C@H]2NC(=O)C[C@@H](NS(=O)(=O)c1cccc(C(F)(F)F)c1)c1ccccc1` (stereo partly drawn) [Example 220a, (3R)-3-((hydroxy(oxido)(3-(trifluoromethyl)phenyl)-lambda-4—sulfanyl)amino)-N-((1R)-6-((1R)-1-((2-methylpropyl)amino)ethyl)-1,2,3,4-tetrahydro-1-naphthalenyl)-3-phenylpropanamide], for which the 50% inhibitory concentration (IC50) was less than 10 nM.

Turning to `CC(C)CNC(C)c1ccc2c(c1)CCC[C@H]2NC(=O)C[C@@H](NS(=O)(=O)c1ccc2ccccc2c1)c1ccccc1` (stereo partly drawn) [Example 220g], the half-inhibitory concentration (IC50) is less than 10 nM.

As for `CC(C)(C)NCc1ccc2c(c1)CCC[C@H]2NC(=O)C[C@H](NS(=O)(=O)c1cccc(C(F)(F)F)c1)c1ccc(F)cc1` [a, (3S)-N-((1R)-6-(((1,1-dimethylethyl)amino)-methyl)-1,2,3,4-tetrahydro-1-naphthalenyl)-3-(4-fluorophenyl)-3-(((3-(trifluoromethyl)phenyl)-sulfonyl)amino)propanamide], the concentration for half-maximal inhibition (IC50) was less than 10 nM.

As to `CN([C@H](CC(=O)N[C@@H]1CCCc2cc(CN3CCCCC3)ccc21)c1ccccc1)S(=O)(=O)c1cccc(C(F)(F)F)c1` [aa, (3R)-3-(methyl((3-(trifluoromethyl)phenyl)sulfonyl)amino)-3-phenyl-N-((1R)-6-(1-piperidinylmethyl)-1,2,3,4-tetrahydro-1-naphthalenyl)propanamide], the 50% inhibitory concentration (IC50) is less than 10 nM.

As to `Cc1c(S(=O)(=O)N[C@H](CC(=O)NC2CCCc3cc(CNC(C)(C)C)ccc32)c2ccccc2)sc2ccc(Cl)cc12` (stereo partly drawn) [ad, (3R)-3-(((5-chloro-3-methyl-1-benzothien-2-yl)sulfonyl)amino)-N-(6-(((1,1-dimethylethyl)amino)methyl)-1,2,3,4-tetrahydro-1-naphthalenyl)-3-phenylpropanamide], the half-maximal inhibitory concentration (IC50) is less than 10 nM.

Turning to `Cc1c(S(=O)(=O)N[C@H](CC(=O)NC2CCCc3cc(CN4CCCCC4)ccc32)c2ccccc2)sc2ccc(Cl)cc12` (stereo partly drawn) [ae, (3R)-3-(((5-chloro-3-methyl-1-benzothien-2-yl)sulfonyl)amino)-3-phenyl-N-(6-(1-piperidinylmethyl)-1,2,3,4-tetrahydro-1-naphthalenyl)propanamide], the IC50 was less than 10 nM.

`O=C(C[C@@H](NS(=O)(=O)c1cccc(C(F)(F)F)c1)c1ccccc1)N[C@@H]1CCCc2cc(CN3CC=CCC3)ccc21` [am, (3R)-N-((1R)-6-(3,6-dihydro-1(2H)-pyridinylmethyl)-1,2,3,4-tetrahydro-1-naphthalenyl)-3-phenyl-3-(((3-(trifluoromethyl)phenyl)sulfonyl)amino)propanamide]: the IC50 was less than 10 nM.

Regarding `COc1ccc([C@@H](CC(=O)N[C@@H]2CCCc3cc(CN4CCCCC4)ccc32)NS(=O)(=O)c2cc3cc(Cl)ccc3s2)cn1` [aw, (3R)-3-(((5-chloro-1-benzothien-2-yl)sulfonyl)amino)-3-(6-(methyloxy)-3-pyridinyl)-N-((1R)-6-(1-piperidinylmethyl)-1,2,3,4-tetrahydro-1-naphthalenyl)propanamide], the 50% inhibitory concentration (IC50) is less than 10 nM.

Turning to `COc1ccc([C@@H](CC(=O)N[C@@H]2CCCc3cc(CN4CCCCC4)ccc32)NS(=O)(=O)c2cccc(C(F)(F)F)c2)cn1` [ay, (3R)-3-(6-(methyloxy)-3-pyridinyl)-N-((1R)-6-(1-piperidinylmethyl)-1,2,3,4-tetrahydro-1-naphthalenyl)-3-(((3-(trifluoromethyl)phenyl)sulfonyl)amino)propanamide], the 50% inhibitory concentration (IC50) was less than 10 nM.

`CC(C)CNCc1ccc2c(c1)CCC[C@H]2NC(=O)C[C@@H](NS(=O)(=O)c1ccc(Cl)c(Cl)c1)c1ccccc1` [bg, (3R)-3-(((3,4-dichlorophenyl)sulfonyl)amino)-N-((1R)-6-(((2-methylpropyl)amino)methyl)-1,2,3,4-tetrahydro-1-naphthalenyl)-3-phenylpropanamide]: the IC50 is less than 10 nM.
